Test results: patent publication US20180099931A1 (AbbVie S.à.r.l., priority 2016, published 2018)
Read-outs that look alike come from different tables or passages of the source.

Biological target: T1, F508delCFTR (Homo sapiens, UniProt P13569, DEL508-508)
T1 construct: expressed in transfected cells; host or cells: CFBE41o- human lung-derived epithelial cells (CFBE4lo-F508delCFTR-HRP), doxycycline-inducible
Assay: Cell Surface Expression-Horse Radish Peroxidase (CSE-HRP) Assay;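 for Maximum % activity (with co-corrector): co-corrector and positive control are both the same reference corrector at 2 µM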;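 for Maximum % activity (without co-corrector): percent of the 2 µM on-plate positive control corrector response above DMSO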
Type: cell-based
Conditions: for Emax / Maximum % activity (with co-corrector): maximum at any tested concentration, normalized to on-plate positive control; for Emax: read-out: Maximum % activity (without co-corrector)

[1] = test compound without co-corrector
[2] = test compound without co-corrector, read-out: EC50 (without co-corrector)
[3] = with co-corrector (2 μM of 3-[(2R,4R)-4-({[1-(2,2-difluoro-1,3-benzodioxol-5-yl)cyclopropyl]carbonyl}amino)-7-methoxy-3,4-dihydro-2H-chromen-2-yl]benzoic acid)
[4] = with co-corrector (2 μM of 3-[(2R,4R)-4-({[1-(2,2-difluoro-1,3-benzodioxol-5-yl)cyclopropyl]carbonyl}amino)-7-methoxy-3,4-dihydro-2H-chromen-2-yl]benzoic acid), read-out: EC50 (with co-corrector)

T1 sequence (P13569 with tags, fused parts or gaps DEL508-508): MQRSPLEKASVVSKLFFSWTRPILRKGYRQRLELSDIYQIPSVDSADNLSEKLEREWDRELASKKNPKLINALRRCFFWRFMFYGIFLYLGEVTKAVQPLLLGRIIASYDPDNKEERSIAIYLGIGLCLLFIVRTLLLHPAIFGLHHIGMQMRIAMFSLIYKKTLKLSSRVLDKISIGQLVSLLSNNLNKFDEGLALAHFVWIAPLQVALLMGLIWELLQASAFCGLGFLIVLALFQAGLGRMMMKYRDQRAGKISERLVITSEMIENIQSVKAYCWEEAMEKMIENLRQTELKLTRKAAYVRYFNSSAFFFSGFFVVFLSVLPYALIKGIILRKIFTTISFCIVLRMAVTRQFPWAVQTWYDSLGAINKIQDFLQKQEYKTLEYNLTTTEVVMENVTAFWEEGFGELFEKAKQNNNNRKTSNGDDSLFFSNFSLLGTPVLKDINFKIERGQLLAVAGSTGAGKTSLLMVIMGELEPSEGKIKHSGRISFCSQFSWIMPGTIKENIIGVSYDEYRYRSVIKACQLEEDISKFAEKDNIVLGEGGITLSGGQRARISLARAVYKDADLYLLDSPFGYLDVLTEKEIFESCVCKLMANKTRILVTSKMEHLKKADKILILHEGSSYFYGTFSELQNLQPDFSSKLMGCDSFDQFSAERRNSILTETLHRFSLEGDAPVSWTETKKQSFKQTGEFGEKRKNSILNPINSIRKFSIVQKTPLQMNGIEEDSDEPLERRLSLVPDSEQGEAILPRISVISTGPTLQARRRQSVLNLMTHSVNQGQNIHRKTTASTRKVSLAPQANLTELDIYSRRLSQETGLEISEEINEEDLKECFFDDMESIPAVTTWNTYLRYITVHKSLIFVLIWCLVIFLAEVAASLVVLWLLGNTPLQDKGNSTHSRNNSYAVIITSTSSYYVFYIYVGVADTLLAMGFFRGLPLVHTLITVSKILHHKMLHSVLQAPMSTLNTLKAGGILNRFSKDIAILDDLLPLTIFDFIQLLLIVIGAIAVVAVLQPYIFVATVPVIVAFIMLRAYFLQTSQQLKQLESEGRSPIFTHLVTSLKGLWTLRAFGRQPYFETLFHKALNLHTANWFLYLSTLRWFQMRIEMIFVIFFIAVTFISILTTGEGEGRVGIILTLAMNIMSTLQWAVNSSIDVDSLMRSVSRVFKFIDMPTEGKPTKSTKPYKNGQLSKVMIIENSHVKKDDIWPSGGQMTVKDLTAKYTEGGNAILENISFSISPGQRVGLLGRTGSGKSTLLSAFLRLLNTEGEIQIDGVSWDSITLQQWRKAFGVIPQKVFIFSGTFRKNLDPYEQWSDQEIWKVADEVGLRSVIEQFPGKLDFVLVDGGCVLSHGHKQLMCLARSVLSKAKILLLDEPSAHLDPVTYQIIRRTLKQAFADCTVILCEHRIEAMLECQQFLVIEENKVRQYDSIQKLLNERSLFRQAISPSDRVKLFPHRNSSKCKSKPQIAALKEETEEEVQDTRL

SMILES	Emax [1]	EC50 [2]	Maximum % activity (with co-corrector) [3]	EC50 [4]
COc1ncc(C(F)(F)F)cc1N[C@H]1[C@H](C(C)(C)C)[C@@H](C(=O)O)N(C(=O)C2C3CCCC32)[C@H]1c1cccnc1N(C)C (some centres unmarked) [II-483]	< 100%	1000 to 10000 nM	++ (≥150 and <350)	1000 to 10000 nM
COc1ccc(C23CC(C2)C3)cc1CN[C@H]1[C@H](C(C)(C)C)[C@@H](C(=O)O)N(C(=O)C2CCCCC2)[C@H]1c1ccccc1OC [II-484]	100 to 200%	< 1000 nM	+++ (≥350)	< 1000 nM
COc1ncc(C(F)(F)F)cc1N[C@H]1[C@H](C(C)(C)C)[C@@H](C(=O)O)N(C(=O)[C@@H]2CCCC[C@H]2C(F)(F)F)[C@H]1c1cccnc1N(C)C [II-485]	< 100%	1000 to 10000 nM	++ (≥150 and <350)	1000 to 10000 nM
COc1ccc(C23CC(C2)C3)cc1CN[C@H]1[C@H](C(C)(C)C)[C@@H](C(=O)O)N(C(=O)C2CCCCC2)[C@H]1c1cccnc1OC [II-486]	> 200%	1000 to 10000 nM	+++ (≥350)	< 1000 nM
COc1cc(C(F)(F)F)ccc1CN[C@H]1[C@H](C(C)(C)C)[C@@H](C(=O)O)N(C(=O)OC(C)C)[C@H]1c1ccccc1 [II-487]	> 200%	1000 to 10000 nM	+++ (≥350)	1000 to 10000 nM
COc1ncc(C(F)(F)F)cc1N[C@H]1[C@H](C(C)(C)C)[C@@H](C(=O)O)N(C(=O)C2CCCC(F)(F)C2)[C@H]1c1cccnc1N(C)C (some centres unmarked) [II-488]	< 100%	1000 to 10000 nM	++ (≥150 and <350)	1000 to 10000 nM
COc1ncc(C2CCC2)cc1CN[C@H]1[C@H](C(C)(C)C)[C@@H](C(=O)O)N(C(=O)C2CCCCO2)[C@H]1c1cccnc1N(C)C (some centres unmarked) [II-491]	> 200%	1000 to 10000 nM	+++ (≥350)	1000 to 10000 nM
COc1ncc(C2CCC2)cc1CN[C@H]1[C@H](C(C)(C)C)[C@@H](C(=O)O)N(C(=O)C2CCCC(F)(F)C2)[C@H]1c1ccccc1 (some centres unmarked) [II-492]	> 200%	1000 to 10000 nM	+++ (≥350)	< 1000 nM
COc1ccc(C2(C)CCC2)cc1CN[C@H]1[C@H](C(C)(C)C)[C@@H](C(=O)O)N(C(=O)[C@H]2CCCCO2)[C@H]1c1cccnc1N(C)C [II-493]	> 200%	1000 to 10000 nM	+++ (≥350)	1000 to 10000 nM
COc1cc(C(F)(F)F)ccc1CN[C@H]1[C@H](C(C)(C)C)[C@@H](C(=O)O)N(C(=O)[C@H]2CCCCO2)[C@H]1c1cccnc1N(C)C [II-494]	< 100%	1000 to 10000 nM	++ (≥150 and <350)	1000 to 10000 nM
COc1cc(C(F)(F)F)ccc1CN[C@H]1[C@H](C(C)(C)C)[C@@H](C(=O)O)N(C(=O)[C@@H]2CCCCO2)[C@H]1c1cccnc1N(C)C [II-495]	> 200%	1000 to 10000 nM	+++ (≥350)	1000 to 10000 nM
COc1nnc(C2CCC2)cc1CN[C@H]1[C@H](C(C)(C)C)[C@@H](C(=O)O)N(C(=O)C2CCCCC2)[C@H]1c1ccccc1 [II-496]	< 100%	1000 to 10000 nM	++ (≥150 and <350)	1000 to 10000 nM
COc1ccc(C(C)(C)C)cc1CN[C@H]1[C@H](C(C)(C)C)[C@@H](C(=O)O)N(C(=O)C2(c3cccc(Cl)c3)COC2)[C@H]1c1ccccc1 [II-497]	< 100%	1000 to 10000 nM	++ (≥150 and <350)	1000 to 10000 nM
COc1ccc(C(C)(C)C)cc1CN[C@H]1[C@H](C(C)(C)C)[C@@H](C(=O)O)N(C(=O)C23CC(F)(C2)C3)[C@H]1c1ccccc1 [II-498]	100 to 200%	1000 to 10000 nM	+++ (≥350)	1000 to 10000 nM
CC(C)(C)[C@H]1[C@H](NCC2(c3ccc4c(c3)OC(F)(F)O4)CC2)[C@H](c2ccccc2)N(C(=O)C2CCCCC2)[C@@H]1C(=O)O [II-499]	100 to 200%	1000 to 10000 nM	+++ (≥350)	1000 to 10000 nM
COc1ccc(C23CC(C2)C3)cc1CN[C@H]1[C@H](C(C)(C)OC)[C@@H](C(=O)O)N(C(=O)OC(C)C)[C@H]1c1cccnc1N(C)C [II-501]	> 200%	1000 to 10000 nM	+++ (≥350)	1000 to 10000 nM
Cc1cc(C(F)(F)F)cc(N[C@H]2[C@H](C(C)(C)C)[C@@H](C(=O)O)N(C(=O)C3CCCCC3C(F)(F)F)[C@H]2c2cccnc2N(C)C)n1 (some centres unmarked) [II-502]	< 100%	1000 to 10000 nM	++ (≥150 and <350)	1000 to 10000 nM
Cc1cc(C(F)(F)F)cc(N[C@H]2[C@H](C(C)(C)C)[C@@H](C(=O)O)N(C(=O)C3CCCC(F)(F)C3)[C@H]2c2cccnc2N(C)C)n1 (some centres unmarked) [II-503]	< 100%	1000 to 10000 nM	+++ (≥350)	1000 to 10000 nM
COc1cc(C(F)(F)F)ccc1CN[C@H]1[C@H](C(C)(C)C)[C@@H](C(=O)O)N(C(=O)C2CCCC(F)(F)C2)[C@H]1c1ccccc1 (some centres unmarked) [II-508]	100 to 200%	1000 to 10000 nM	+++ (≥350)	< 1000 nM
COc1ccc(C23CC(C2)C3)cc1CN[C@H]1[C@H](C(C)(C)C)[C@@H](C(=O)O)N(C(=O)[C@H]2CCCC(F)(F)C2)[C@H]1c1ccccc1 [II-509]	> 200%	< 1000 nM	+++ (≥350)	< 1000 nM
COc1ncc(C(F)(F)F)cc1CN[C@H]1[C@H](C(C)(C)C)[C@@H](C(=O)O)N(C(=O)OC(C)C)[C@H]1c1cccnc1N(C)C [II-510]	> 200%	1000 to 10000 nM	+++ (≥350)	1000 to 10000 nM
COc1ccc(C(C)(C)C)cc1CN[C@H]1[C@H](C(C)(C)C)[C@@H](C(=O)O)N(C(=O)OC(C)C)[C@H]1c1cccnc1OC [II-511]	100 to 200%	1000 to 10000 nM	+++ (≥350)	1000 to 10000 nM
COc1ncc(C(F)(F)F)cc1CN[C@H]1[C@H](C(C)(C)C)[C@@H](C(=O)O)N(C(=O)OC(C)C)[C@H]1c1cccnc1OC [II-512]	100 to 200%	1000 to 10000 nM	+++ (≥350)	1000 to 10000 nM
COc1cc(C(F)(F)F)ccc1CN[C@H]1[C@H](C(C)(C)C)[C@@H](C(=O)O)N(C(=O)OC(C)C)[C@H]1c1cccnc1OC [II-513]	100 to 200%	1000 to 10000 nM	+++ (≥350)	1000 to 10000 nM
COc1cc(C(F)(F)F)ccc1CN[C@H]1[C@H](C(C)(C)C)[C@@H](C(=O)O)N(C(=O)OC(C)C)[C@H]1c1cccnc1N(C)C [II-514]	100 to 200%	1000 to 10000 nM	+++ (≥350)	1000 to 10000 nM
COc1ccc(C(C)(C)C)cc1CN[C@H]1[C@H](C(C)(C)C)[C@@H](C(=O)O)N(C(=O)[C@@H]2CCC[C@H](O)C2)[C@H]1c1ccccc1 [II-515]	100 to 200%	1000 to 10000 nM	+++ (≥350)	1000 to 10000 nM
